Experimental findings from patent US11266616B2, “Compositions and methods for inhibiting kinase activity” (BRANDEIS UNIVERSITY, priority 2016, dated 2022) are described below.

One data set deals with HeLa cells. Nature of the data set: HeLa cell viability with PS48. The data set is classed as cell-based, human. As to conditions: FIG. 39.
Data set [1] in a line: Stability of PS48 at very high concentrations. It is filed as physicochemical.
The target in data set [2] is T1, TPX2 binding site of Aurora A kinase (Homo sapiens, UniProt O14965).
T1 construct: Codon-optimized Aurora A^122-403 in pET28a and untagged λPP in T7-7 plasmid were co-transformed in BL21(DE3) cells; inferred from pET28a and the NiNTA column) (cleaved yes); made in house; host or cells: E. coli BL21(DE3) (Aurora A); TPX2 not described
T1 sequence (O14965 122-403): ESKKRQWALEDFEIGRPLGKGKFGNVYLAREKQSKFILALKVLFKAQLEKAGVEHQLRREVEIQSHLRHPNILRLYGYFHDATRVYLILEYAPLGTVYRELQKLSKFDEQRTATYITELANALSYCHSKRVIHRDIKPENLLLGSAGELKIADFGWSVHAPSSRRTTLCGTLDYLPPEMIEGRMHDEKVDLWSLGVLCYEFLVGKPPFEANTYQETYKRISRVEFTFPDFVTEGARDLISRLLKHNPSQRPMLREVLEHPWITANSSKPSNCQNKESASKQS
The data set is described as follows: NMR titration (1H-15N HSQC) of TPX2, Aurora A and PS48. As to conditions: FIGS. 27A-27C. How it is done:
FIGS. 27A-27C is a set of plots showing results of NMR titration showing that PS48 binds to the TPX2 binding site of Aurora A kinase. FIG. 27A is a plot showing ^1H-^15N heteronuclear single quantum coherence (HSQC) spectra of selected titration points (250 μM TPX2, 250 μM TPX2+100 μM Aurora A, and 250 μM TPX2+100 μM Aurora A+1.5 mM PS48). A magnified view showing separation of peaks is indicated by an arrow. FIG. 27B is a plot showing changes in chemical shift (Δδ) at 200 μM TPX2 and varying concentrations of Aurora A. FIG. 27C is a plot showing changes in chemical shift (Δδ) at 200 μM TPX2 and 100 μM Aurora A and varying concentrations of PS48.

The next data set has as its target T2, Aurora A kinase and TPX2 (Homo sapiens, UniProt O14965, T288V).
T2 construct: 1 μM A^122-403 T288V, 100 μM TPX2^1-45 and 1 mM kemptide was used
T2 sequence (O14965 122-403 T288V): T1 sequence (O14965 122-403) with T167V
The data set is described as follows: Kemptide phosphorylation by dephosphorylated Aurora A kinase and TPX2 with increasing PS48 (TPX2 competition). To be noted: 1 μM A122-403 T288V, 100 μM TPX2 1-45, 1 mM kemptide; FIGS. 28A-28B. It is filed as biochemical. The method, then: FIGS. 28A-28B is a set of plots showing PS48 binds to the TPX2 binding site of Aurora A kinase and PS48 competes with TPX2 for binding to Aurora A kinase in vitro. FIG. 28A is a plot showing measurements of phosphorylation of kemptide (a peptide substrate for Aurora A kinase) when incubated with dephosphorylated Aurora A kinase and TPX2 and various increasing amounts of PS48. […] In the assays shown, 1 μM A^122-403 T288V, 100 μM TPX2^1-45 and 1 mM kemptide was used.
Aurora A, either phosphorylated/dephosphorylated wild type or mutant protein, was mixed with either AP ([…]) (SEQ ID NO: 5), Kemptide (LRRASLG) (SEQ ID NO: 6), or Lats2 ([…]) (SEQ ID NO: 7), in the absence or presence of 50 μM TPX2 in kinase buffer (20 mM TrisHCl, 200 mM NaCl, 3% [vol/vol] glycerol, 20 mM MgCl2, 1 mM TCEP, pH 7.50). These substrates comprise the consensus sequence for Aurora A ([R/K/N]—R—X—[S/T]-B where B is any hydrophobic residue with the exception of Pro) (Ferrari et al., 2005, Biochem. J., 390(Pt 1):293-302; Ohashi et al., 2006, Oncogene, 25:7691-7702; Sardon et al., 2010, EMBO Reports, 11:977-984). Peptides were ordered through Genscript. For HPLC-based activity assays the following protocol was used. The reaction was initiated with the addition of 5 mM ATP. […]

Data set [3] has as its target T3, dephosphorylated Aurora A kinase (Homo sapiens, UniProt O14965).
T3 construct: Codon-optimized Aurora A^122-403 in pET28a and untagged λPP in T7-7 plasmid were co-transformed in BL21(DE3) cells; inferred from pET28a and the NiNTA column) (cleaved yes); made in house; host or cells: E. coli BL21(DE3), co-expressed with lambda protein phosphatase
T3 sequence (O14965 122-403): T1 sequence (O14965 122-403)
Nature of the data set: Isothermal titration calorimetry (ITC) binding to dephosphorylated Aurora A kinase. The method, then:
Titrations were carried out using Nano ITC isothermal titration calorimeter (TA Instruments) and analyzed via the NanoAnalyze software using the independent fit model. Injectant was added in 1 μl volume, every 180 s, with a constant stirring speed at 350 rpm and at 25° C. Prior to ITC titration, both protein and TPX2 or monobody were dialyzed/resuspended in ITC buffer (20 mM TrisHCl, 200 mM NaCl, 3% (vol/vol) glycerol, 1 mM TCEP, pH 7.50).
(Isothermal titration calorimetry measures the heat released or taken up as one component is titrated into another.)

Positions count from the first letter of the chain named. “Also recorded” adds a separate entry of the source. Like-named read-outs stand apart in the source and are kept apart here.

For the molecule `O=C(O)/C=C(/CCc1ccc(Cl)cc1)c1ccccc1` [PS48], the HeLa cell viability entry in the data set with HeLa cells is given as “PS48-dose dependent; also recorded: decreased cell viability”. The “stability of PS48” value in data set [1] is recorded as “not stable”. Besides, the “binding site of PS48 on Aurora A kinase” value in data set [2] is reported as “bound to the TPX2 binding site of Aurora A kinase”. On Aurora A kinase and TPX2, the “effect of PS48 on kinase activity of Aurora A incubated with TPX2” value is recorded as “inhibits kinase activity by competing off TPX2 binding; also recorded: disrupting binding of TPX2 to Aurora A kinase”. For the same molecule, the Kd – broadly, the constant that tells how readily two partners part at equilibrium – was about 85 µM in data set [3] (Aurora A saturated with danusertib, FIGS. 3C-3D, read-out: Kd of PS48 binding to dephosphorylated Aurora A kinase) and about 46 µM in data set [3] (ITC, FIG. 3B, read-out: Kd of binding of PS48 to Aurora A kinase).
